These results are taken from PubChem BioAssay (NCI).

What all share (test): inhibition of tumour cell growth, NCI panel, 48 h
The subject of assay [1] is EKVX NSCLC.
In assay [2] the test system is HCC-2998 colon.
In assay [3] the test system is HCT-15 colon.
For assay [4], the system named is HL-60(TB) leukemia.
Assay [5] concerns HOP-92 NSCLC.
The subject of assay [6] is OVCAR-3 ovarian.
Assay [7] has as its system SF-295 CNS.
The subject of assay [8] is SK-MEL-28 melanoma.
The test system of assay [9] is U251 CNS.
Assay [10] relates to RPMI-8226 leukemia.

“And” between values parts separate entries of the source, which are not always exact repeats. Equal values may be shown once.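 Values below derive from 48-hour exposures of cells grown in 96-well plates, with endpoints linearly interpolated between the two concentrations bracketing the appropriate inhibition level. Here, GI50 denotes the concentration required for 50% inhibition of growth. TGI marks complete inhibition of growth.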 Bounds are passed on as bounds.

For `COc1cc(C(=O)C2CC3(CCC2(O)c2cc(OC)c(OC)c(OC)c2)CC(=O)Nc2ccccc2C3=O)cc(OC)c1OC` (stereo unspecified), the TGI is greater than 100 µM in assay [1]; greater than 100 µM in [2]; greater than 100 µM in assay [3]; 78.8 µM in assay [4]; greater than 100 µM in [5]; greater than 100 µM in [6]. In addition, the TGI in assay [7], in assay [8] and in assay [9] was greater than 100 µM throughout.
Consider `Cc1c(C2=NN=C(N=Nc3c(O)cccc3O)/C2=C/c2ccccc2)c(=O)n(-c2ccccc2)n1C`, for which the TGI in assay [1], in assay [2], in assay [3], in [4], in [5] and in [6] was greater than 100 µM in each case. For the same compound, the TGI in [10], in assay [7], in assay [8] and in assay [9] was greater than 100 µM each time.
In the case of `Nc1n[nH]c(CCCCCCCc2nc(N)n[nH]2)n1`, the TGI in assay [1], in assay [2], in [3], in assay [4], in assay [6] and in [10] was greater than 100 µM each time. Moreover, the TGI in assay [8] and in assay [9] was greater than 100 µM in each case.
For the compound `CC(C)=CCC/C(C)=C/CCC1(C)C=Cc2c(c3ccccc3oc2=O)O1` (stereo unspecified), the TGI was 33.9 µM in assay [1]; 31.8 µM in assay [2]; 30.2 µM in assay [3]; greater than 75.8 µM in assay [4]; 25 µM in assay [5]; 32.7 µM in assay [6]. Moreover, the TGI came out at 63.8 µM in assay [10], 33.9 µM in [7], 29.9 µM in assay [8] and 28.8 µM in [9].
For `CC1SC(c2ccc(Cl)cc2)N(CCc2cccs2)C1=O` (stereo unspecified), the GI50 was 1.3 µM in assay [1]; 1.55 µM in [2]; 1.56 µM in assay [3]; 2.58 µM in [4]; 0.855 µM in [5]; 1.42 µM in assay [6]. Also, the GI50 is 1.33 µM in [10], 1.23 µM in [7], 1.58 µM in assay [8] and 1.63 µM in [9]. Further, the TGI in [1] is 4.47 µM; in assay [2], 3.4 µM; in assay [3], 3.59 µM; in assay [4], 8.73 µM; in assay [5], 2.2 µM; in assay [6], 2.74 µM. The TGI was determined as 4.55 µM in [10], 2.53 µM in assay [7], 2.99 µM in [8] and 3.18 µM in [9].
For `O=C(O)CCCc1ccccc1`, the GI50 in [1] is 294 µM and > 1000 µM; in [2], greater than 1000 µM; in assay [3] it was greater than 1000 µM; in assay [4], greater than 1000 µM; in assay [5], greater than 1000 µM; in assay [6] it was 537 µM. Moreover, the GI50 is 19.5 µM in [10]; 370 µM and > 1000 µM in assay [7]; 325 µM and > 1000 µM in assay [8]; 292 µM and > 1000 µM in assay [9]. Further, the TGI in assay [1] was greater than 1000 µM; in assay [2], 517 µM and > 1000 µM; in [3], 342 µM and > 1000 µM; in assay [4] it was greater than 1000 µM; in assay [5] it was 363 µM and > 1000 µM; in assay [6] it was greater than 1000 µM. Besides, the TGI in [10] was 79.2 µM; in [7] it was 738 µM and > 1000 µM; in assay [8], greater than 1000 µM; in assay [9] it was greater than 1000 µM.
Turning to `COCCOCOC(C)(C)[C@H](CCO)O[Si](c1ccccc1)(c1ccccc1)C(C)(C)C`, the TGI in assay [1] turned out to be 29.5 µM; in assay [2], 18.9 µM; in [3], 17.5 µM; in [4], 9.05 µM; in assay [5], 23.6 µM; in assay [6] it was 22.2 µM. In addition, the TGI in assay [10] came out at 35.5 µM; in assay [7], 18.6 µM; in assay [8], 29.7 µM; in assay [9], 24.5 µM.
In the case of `O=C(O)C12CC3CC(C1)C2C=C3P(=O)(O)O` (stereo unspecified), the TGI in assay [1], in assay [2], in assay [3], in [4], in [5] and in assay [6] was greater than 100 µM in each case. Moreover, the TGI in assay [10], in assay [7], in assay [8] and in [9] was greater than 100 µM throughout.
`O=C1c2ccccc2C(=O)c2c1cc1c(c2[N+](=O)[O-])OCO1`: the GI50 was 2.92 µM in assay [1]; 1.5 µM in [2]; 2.15 µM in [3]; 0.465 µM in assay [4]; 1.27 µM in [5]; 1.43 µM in assay [6]. The GI50 in assay [10] was 0.267 µM; in assay [7], 2.27 µM; in [8], 3.52 µM; in [9], 2.15 µM. For the same compound, the TGI turned out to be 9.8 µM in assay [1]; 4 µM in assay [2]; 8.82 µM in assay [3]; 8.94 µM in [4]; 3.75 µM in assay [5]; 4.77 µM in [6]. Also, the TGI in assay [10] came out at 0.916 µM; in [7], 8.82 µM; in [8], 26.6 µM; in [9], 7.72 µM.
Regarding `c1ccc2cc3c(cc2c1)OP1(Oc2cccc4cccnc24)(O3)Oc2cc3ccccc3cc2O1`, the TGI is greater than 57.3 µM in [1]; 27.2 µM in [2]; greater than 100 µM in assay [3]; 5.78 µM in assay [4]; 76.3 µM in [5]; 5.45 µM in assay [6]. The TGI in assay [7] was greater than 58.9 µM; in assay [8] it was greater than 100 µM; in assay [9], greater than 100 µM.
On to `COc1cc(/C=C/C2=C(C#N)C(=O)OC2(C)C)ccc1O`, for which the TGI in [1] is greater than 100 µM; in [2] it was greater than 100 µM; in assay [3], 93.8 µM; in assay [4], greater than 100 µM; in [5], greater than 100 µM; in assay [6], greater than 100 µM. The TGI in assay [10] was 49.6 µM; in [7], greater than 100 µM; in assay [8], greater than 100 µM; in assay [9] it was 31.7 µM.
